Reference: patent publication EP0084730A1, “Esters of penicillin derivatives with beta-lactamase inhibitors, their preparation and their use” (BEECHAM GROUP PLC, priority 1982, dated 1983)

Tests used:
[1] = Blood levels of the clavulanate after oral dosing in mice, determined by β-lactamase inhibition assay; type: in vivo; details: mouse
Description: These compounds were adminstered in 10% dimethylformamide/90% olive oil. […]
(§1) An antibacterial assay was used to determine levels of benzyl penicillin in blood samples. A P-lactamase inhibition assay was employed to determine levels of the clavulanate in the samples.

[2] = Blood levels of benzyl penicillin after oral dosing in mice, determined by antibacterial assay; details: mouse, in vivo, 60 mg/kg
Procedure: […] These compounds were adminstered in 10% dimethylformamide/90% olive oil. The dose was equivalent to approximately 62 mg/kg of benzyl penicillin and 38 mg/kg of the clavulanate.
as §1

COC/C=C1\O[C@@H]2CC(=O)N2[C@H]1C(=O)O [Clavulanic acid methyl ether]
concentration at 0.25 h ([1]; in vivo, 20 mg/kg): 7500 ng/mL | concentration at 0.5 h ([1]; in vivo, 20 mg/kg): 3850 ng/mL | concentration at 1 h ([1]; in vivo, 20 mg/kg): 1500 ng/mL | concentration at 2 h ([1]; in vivo, 20 mg/kg): 200 ng/mL | Blood levels of clavulanic acid methyl ether ([1]; in vivo, 20 mg/kg, 1.5 h): 450 ng/mL

CC1(C)S[C@@H]2[C@H](NC(=O)Cc3ccccc3)C(=O)N2[C@H]1C(=O)O [benzyl penicillin]
concentration at 0.25 h [2]: 1390 ng/mL | concentration at 0.5 h [2]: 1050 ng/mL | concentration at 0.75 h [2]: 1250 ng/mL | concentration at 1 h [2]: 620 ng/mL | concentration at 1.5 h [2]: 550 ng/mL | concentration at 2 h [2]: 320 ng/mL | Blood levels of benzyl penicillin ([2]; 0.25 h): 1390 ng/mL | Blood levels of benzyl penicillin ([2]; 0.5 h): 1050 ng/mL | Blood levels of benzyl penicillin ([2]; 0.75 h): 1250 ng/mL | Blood levels of benzyl penicillin ([2]; 1 h): 620 ng/mL | Blood levels of benzyl penicillin ([2]; 1.5 h): 550 ng/mL | Blood levels of benzyl penicillin ([2]; 2 h): 320 ng/mL

O=C(O)[C@H]1/C(=C/CO)O[C@@H]2CC(=O)N21 [clavulanic acid]
concentration at 0.25 h ([1]; blood, mice, clavulanic acid alone at 20 mg/kg, 15' after administration, mean results from several experiments, read-out: Blood levels of clavulanic acid): 5900 ng/mL | concentration at 0.5 h ([1]; blood, mice, clavulanic acid alone at 20 mg/kg, 30' after administration, mean results from several experiments, read-out: Blood levels of clavulanic acid): 2300 ng/mL | concentration at 0.75 h ([1]; blood, mice, clavulanic acid alone at 20 mg/kg, 45' after administration, mean results from several experiments): 1040 ng/mL | concentration at 1 h ([1]; blood, mice, clavulanic acid alone at 20 mg/kg, 60' after administration, mean results from several experiments, read-out: Blood levels of clavulanic acid): 530 ng/mL | concentration at 1.5 h ([1]; blood, mice, clavulanic acid alone at 20 mg/kg, 90' after administration, mean results from several experiments): 340 ng/mL | concentration at 2 h ([1]; blood, mice, clavulanic acid alone at 20 mg/kg, 120' after administration, mean results from several experiments, read-out: Blood levels of clavulanic acid): ≤ 300 ng/mL
